Data: the CheMixHub viscosity set

Experiment: xn = mol fraction of the nth substance listed

CCCCCOC(C)=O + ClC(Cl)C(Cl)Cl
303.15 K, 101.3 kPa
Details | viscosity [mPa·s]
x1 = 0.1051 | 1.473
x1 = 0.2031 | 1.446
x1 = 0.3044 | 1.401
x1 = 0.4008 | 1.34
x1 = 0.5038 | 1.256
x1 = 0.598 | 1.165
x1 = 0.7002 | 1.061
x1 = 0.7935 | 0.9582
x1 = 0.8927 | 0.8565

CCOC(=O)CC + ClC(Cl)C(Cl)Cl
viscosity [mPa·s], 101.3 kPa
Details | 308.15 K | 318.15 K
x1 = 0.0486 | 1.333 | 1.203
x1 = 0.0999 | 1.261 | 1.128
x1 = 0.2025 | 1.127 | 0.996
x1 = 0.2997 | 1.013 | 0.888
x1 = 0.3983 | 0.922 | 0.794
x1 = 0.5003 | 0.817 | 0.71
x1 = 0.5986 | 0.714 | 0.64
x1 = 0.7023 | 0.617 | 0.576
x1 = 0.801 | 0.583 | 0.523
x1 = 0.9018 | 0.521 | 0.476
x1 = 0.951 | 0.493 | 0.455

CCCCCOC(C)=O + ClC(Cl)Cl
303.15 K, 101.3 kPa
Details | viscosity [mPa·s]
x1 = 0.0995 | 0.5918
x1 = 0.2017 | 0.6667
x1 = 0.2998 | 0.725
x1 = 0.3984 | 0.7678
x1 = 0.5049 | 0.7991
x1 = 0.5912 | 0.8048
x1 = 0.7005 | 0.8002
x1 = 0.8153 | 0.7844
x1 = 0.8911 | 0.7722

CCCCCOC(C)=O + ClCCCl
303.15 K, 101.3 kPa
Details | viscosity [mPa·s]
x1 = 0.1052 | 0.7366
x1 = 0.196 | 0.7444
x1 = 0.303 | 0.7582
x1 = 0.4004 | 0.7651
x1 = 0.4924 | 0.7693
x1 = 0.5994 | 0.7716
x1 = 0.702 | 0.7686
x1 = 0.805 | 0.762
x1 = 0.8946 | 0.7597

CC1CCCO1 (stereo unspecified) + Clc1ccccc1
298.15 K, 101 kPa
Details | viscosity [mPa·s]
x2 = 0.0188 | 0.47
x2 = 0.0509 | 0.482
x2 = 0.103 | 0.501
x2 = 0.157 | 0.52
x2 = 0.2126 | 0.54
x2 = 0.2712 | 0.56
x2 = 0.3298 | 0.579
x2 = 0.3913 | 0.598
x2 = 0.4548 | 0.617
x2 = 0.5206 | 0.635
x2 = 0.5892 | 0.654
x2 = 0.6601 | 0.671
x2 = 0.7334 | 0.689
x2 = 0.8094 | 0.705
x2 = 0.889 | 0.722
x2 = 0.9713 | 0.737

CCOC(=O)CC + Clc1ccccc1
viscosity [mPa·s], 101.3 kPa
Details | 308.15 K | 318.15 K
x1 = 0.0485 | 0.647 | 0.598
x1 = 0.102 | 0.636 | 0.588
x1 = 0.1976 | 0.616 | 0.57
x1 = 0.307 | 0.594 | 0.55
x1 = 0.3981 | 0.576 | 0.534
x1 = 0.4981 | 0.557 | 0.517
x1 = 0.6116 | 0.535 | 0.498
x1 = 0.7034 | 0.519 | 0.483
x1 = 0.7992 | 0.501 | 0.467
x1 = 0.9 | 0.484 | 0.451
x1 = 0.9478 | 0.476 | 0.444

ClCC(Cl)Cl + N#CCc1ccccc1
Details | viscosity [mPa·s]
303.15 K, 101 kPa, x2 = 0.3463 | 1.365

C1CNCCN1.C1CNCCN1.C1CNCCN1.O=C(O)CC(O)(CC(=O)O)C(=O)O.O=C(O)CC(O)(CC(=O)O)C(=O)O + O
viscosity [mPa·s], 101.3 kPa
Details | 293.15 K | 303.15 K | 313.15 K
x1 = 0.000319 | 1.035 | 0.826 | 0.679
x1 = 0.000781 | 1.073 | 0.857 | 0.708
x1 = 0.000911 | 1.086 | 0.865 | 0.716
x1 = 0.00105 | 1.101 | 0.877 | 0.725
x1 = 0.00119 | 1.115 | 0.888 | 0.733
x1 = 0.00134 | 1.132 | 0.901 | 0.743
x1 = 0.00149 | 1.148 | 0.914 | 0.753
x1 = 0.00166 | 1.166 | 0.928 | 0.763
x1 = 0.00179 | 1.179 | 0.939 | 0.771
x1 = 0.001875 | 1.188 | 0.945 | 0.775
x1 = 0.002838 | 1.303 | 1.034 | 0.834

C=CCC[n+]1ccn(CC)c1.[Br-] + O
viscosity [mPa·s], 101.33 kPa
Details | x1 = 0.001149 | x1 = 0.001784 | x1 = 0.003604 | x1 = 0.005391 | x1 = 0.007164 | x1 = 0.008843
293.15 K | 1.038 | 1.055 | 1.095 | 1.132 | 1.168 | 1.206
298.15 K | 0.922 | 0.936 | 0.971 | 1.003 | 1.034 | 1.067
303.15 K | 0.825 | 0.837 | 0.867 | 0.895 | 0.924 | 0.95
308.15 K | 0.743 | 0.754 | 0.781 | 0.806 | 0.831 | 0.854
313.15 K | 0.674 | 0.684 | 0.708 | 0.73 | 0.753 | 0.772

CC(C)CO + O
Details | viscosity [mPa·s]
293.15 K, 101.33 kPa, x1 = 0.0049 | 1.124
293.15 K, 101.33 kPa, x1 = 0.01 | 1.222
293.15 K, 101.33 kPa, x1 = 0.015 | 1.332
293.15 K, 101.33 kPa, x1 = 0.021 | 1.453
298 K, 101 kPa, x2 = 0.2 | 3.148
298 K, 101 kPa, x2 = 0.4 | 3.209
299 K, 101 kPa, x2 = 0.1 | 3.13
299 K, 101 kPa, x2 = 0.45 | 3.156
300 K, 101 kPa, x2 = 0.3 | 2.95
303 K, 101 kPa, x1 = 0.01 | 0.931
303 K, 101 kPa, x2 = 0.1 | 2.753
303 K, 101 kPa, x2 = 0.2 | 2.679
303 K, 101 kPa, x2 = 0.3 | 2.676
303 K, 101 kPa, x2 = 0.4 | 2.719
303 K, 101 kPa, x2 = 0.45 | 2.761
303.15 K, 101.33 kPa, x1 = 0.0049 | 0.899
303.15 K, 101.33 kPa, x1 = 0.01 | 0.967
303.15 K, 101.33 kPa, x1 = 0.015 | 1.04
303.15 K, 101.33 kPa, x1 = 0.021 | 1.119
313 K, 101 kPa, x1 = 0.01 | 0.7483
313 K, 101 kPa, x2 = 0.1 | 2.041
313 K, 101 kPa, x2 = 0.2 | 1.985
313 K, 101 kPa, x2 = 0.3 | 1.976
313 K, 101 kPa, x2 = 0.4 | 2.002
313 K, 101 kPa, x2 = 0.45 | 2.025
313.15 K, 101.33 kPa, x1 = 0.0049 | 0.721
313.15 K, 101.33 kPa, x1 = 0.01 | 0.767
313.15 K, 101.33 kPa, x1 = 0.015 | 0.815
323 K, 101 kPa, x1 = 0.01 | 0.6161
323 K, 101 kPa, x2 = 0.1 | 1.55
323 K, 101 kPa, x2 = 0.2 | 1.51
323 K, 101 kPa, x2 = 0.3 | 1.502
323 K, 101 kPa, x2 = 0.4 | 1.517
323 K, 101 kPa, x2 = 0.45 | 1.531
323.15 K, 101.33 kPa, x1 = 0.0049 | 0.604
323.15 K, 101.33 kPa, x1 = 0.01 | 0.642
323.15 K, 101.33 kPa, x1 = 0.015 | 0.675

CCCCCOC(C)=O + O
303.15 K, 101.3 kPa
Details | viscosity [mPa·s]
x2 = 0.0121 | 0.796
x2 = 0.0385 | 0.801
x2 = 0.0645 | 0.805
x2 = 0.0655 | 0.805
x2 = 0.0854 | 0.809

C[NH+]1CCCC1=O.O=S(=O)([O-])c1ccccc1 + O
viscosity [mPa·s]
Details | 293.15 K | 298.15 K | 303.15 K | 308.15 K
100 kPa, x1 = 0.001798 | 1.074 | 0.9472 | 0.8439 | 0.7688
100 kPa, x1 = 0.003606 | 1.137 | – | 0.8882 | 0.8029
100 kPa, x1 = 0.005372 | 1.198 | 1.053 | 0.9316 | –
100 kPa, x1 = 0.008042 | 1.285 | – | 0.998 | 0.8943
100 kPa, x1 = 0.01069 | 1.372 | 1.206 | – | 0.9518
100 kPa, x1 = 0.01421 | 1.491 | – | – | –
100 kPa, x1 = 0.02115 | 1.749 | – | – | –
100 kPa, x1 = 0.02631 | 1.971 | 1.746 | 1.541 | 1.369
100 kPa, x1 = 0.03141 | 2.217 | 1.963 | 1.737 | 1.527
101 kPa, x1 = 0.005347 | – | 1.055 | – | –
101 kPa, x1 = 0.01545 | – | – | 1.185 | –
